The text below walks through data of the METLIN SMRT retention time set (Domingo-Almenara et al. 2019).

Molecules are shown by their SMILES.

A short description of the series: gradient 5% acetonitrile 3 min, to 50% in 2 min, to 85% in 15 min, held 3 min, 100 µL/min. As to conditions: column: Zorbax Extend-C18 2.1 x 50 mm; eluents: water / acetonitrile, 0.1% formic acid. A digest of the protocol:
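A Zorbax Extend-C18 column (2.1 × 50 mm, 1.8 μm) run at 100 μL/min with water and acetonitrile, both containing 0.1% formic acid, separated mixtures of ~100 pure standards. The HPLC was coupled to a quadrupole time-of-flight mass spectrometer operated in positive and negative ionization mode, with dead and dwell volumes of 40 μL and 900 μL. Each retention time was taken from a computationally picked adduct peak that was then manually inspected.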
With `Cc1ccc(NS(=O)(=O)c2cc(-c3[nH]ncc3C(=O)N(C)C)oc2C)cc1`, the RP-LC retention time amounted to 690 s.

Compound `Cc1sc(-c2cc(C(F)(F)F)on2)cc1S(=O)(=O)NCc1ccccc1` showed an RP-LC retention time of 1110 s.

For `O=C(Nc1ccsc1-c1nnc(C2CC2)o1)c1cccs1`, the RP-LC retention time is 1160 s.

For the compound `COC[C@@H]1CN(S(=O)(=O)c2c(C)noc2C)C[C@H]1c1ccncc1`, the RP-LC retention time came out at 570 s.

Compound `CCOc1ccc(CNS(=O)(=O)c2cc(-c3cnn4c(C)cc(C)nc34)ccc2C)cc1OCC` gave an RP-LC retention time of 1040 s.

As for `COc1ccc2nc(NC(=O)Cc3csc4nc(-c5ccc(C)c(C)c5)cn34)sc2c1`, the RP-LC retention time came out at 885 s.

`Cn1cccc1Cc1nnc(SCC(=O)NCc2ccco2)n1Cc1ccccc1` yielded an RP-LC retention time of 708 s.

With `CC(C)N(C(=O)CSc1nc2ccccc2[nH]1)c1ccccc1`, the RP-LC retention time came out at 650 s.

Compound `CCC(C(=O)Nc1c(-c2ccc(OC)cc2)nc2cc(C)ccn12)c1ccccc1` (centres undefined) displayed an RP-LC retention time of 713 s.

`Cn1nc2n(c1=O)CCC(NC(=O)c1cc(C3CC3)[nH]n1)CC2` (centres undefined) registered an RP-LC retention time of 586 s.

Turning to `Cc1ccn2c(Nc3ccccc3C)c(-c3ccccc3)nc2c1`, the RP-LC retention time was 745 s.

As to `CCOC(=O)C1CCc2sc(NC(=O)Cc3noc4ccccc34)nc21` (centres undefined), the RP-LC retention time is 818 s.

With `O=C(Nc1cc(-c2ccsc2)no1)C1(c2ccccc2)CC1`, the RP-LC retention time came to 1030 s.

In turn, `Cc1ccc2[nH]c(C(N)=O)c(N3CCCC3=O)c2c1` yielded an RP-LC retention time of 646 s.

In turn, `CCc1nc(N)n(CC(=O)NCc2ccccc2)c(=O)c1C` had an RP-LC retention time of 623 s.

The compound `CC(C)NC(=O)c1ccc(OCC2CCCN(C(=O)Cc3ccc(Cl)cc3)C2)cc1` (centres undefined) came in with an RP-LC retention time of 918 s.

Consider `Cc1ccc(C2=NC3(CCN(C(=O)COc4ccc(Cl)cc4)CC3)ON2)cc1`, for which the RP-LC retention time is 935 s.

`Cc1cnnn1-c1ccc(C(=O)Nc2cc(Cl)ccc2Cl)cc1` showed an RP-LC retention time of 815 s.

Consider `CC(C)c1ccc(NC(=O)C2CCCN(c3ccc(=O)n(-c4cccc(Cl)c4)n3)C2)cc1` (centres undefined), for which the RP-LC retention time was 1120 s.

`CC(C)n1cnc(S(=O)(=O)N2CCCC(C(=O)Nc3cccc(F)c3)C2)c1` (centres undefined) registered an RP-LC retention time of 726 s.

With `CSc1ccc(CCNC(=O)Cn2c(=O)c3cccn3c3ccc(F)cc32)cc1`, the RP-LC retention time is 897 s.

In turn, `CCc1ccc(NC(=O)NCc2ccnc(N3CCSCC3)c2)cc1` returned an RP-LC retention time of 668 s.

The compound `Cc1ccc(F)cc1NS(=O)(=O)c1c[nH]c2ncccc12` yielded an RP-LC retention time of 747 s.

The compound `Cc1cc(-c2nnc(-c3ccc(F)cc3)o2)c(C)n1CC(=O)NC1CCCC1` registered an RP-LC retention time of 908 s.

Consider `COC[C@@H]1CN(Cc2cccc(C#N)c2)C[C@H]1c1ccccn1`, for which the RP-LC retention time stood at 608 s.

`Cc1noc(C)c1CC(=O)NC1CCc2nn(CC3CC3)c(=O)n2CC1` (centres undefined) showed an RP-LC retention time of 625 s.

`COC(=O)c1cc(OC)c(OC)cc1NC(=O)NCCc1c[nH]c2ccccc12` displayed an RP-LC retention time of 876 s.

With `COc1ccc(N2CC(c3nc(-c4cccc(Cl)c4)no3)CC2=O)cc1` (centres undefined), the RP-LC retention time is 973 s.

For `CCn1c(C2CCCN(C(=O)NC(C)C)C2)nn(C)c1=O` (centres undefined), the RP-LC retention time turned out to be 613 s.

Regarding `CCN(CC)C(=O)C1c2cc(OC)c(OC)cc2C(=O)N(C)C1c1ccc(OC)c(OC)c1` (centres undefined), the RP-LC retention time was 706 s.

Take `Cc1cc2nn(CC(=O)N3CCCC3)c(=O)n2c(Nc2ccc(C)c(F)c2)n1`: the RP-LC retention time is 922 s.

`CC1CCC(NC(=O)c2cc3sc(Cl)cc3n2C)CC1` (centres undefined) registered an RP-LC retention time of 1230 s.

In the case of `CCNC(=O)C1CCN(c2nc3ccc(-c4ccccc4)nc3s2)CC1`, the RP-LC retention time worked out at 835 s.

Turning to `O=C(CN1CCN(Cc2cccc(Cl)c2)C1=O)NCC1CCCCC1`, the RP-LC retention time is 920 s.

`COc1ccc(NS(=O)(=O)c2c(C)sc(C)c2-c2cc(C(F)(F)F)on2)cc1Cl`: the RP-LC retention time came out at 1180 s.

The compound `Cc1ccn2c(NC(=O)COc3ccc(Cl)cc3)c(-c3ccccc3)nc2c1` had an RP-LC retention time of 714 s.

For `O=S(=O)(C1CC1)N1CCC(c2nc(-c3ccncc3)no2)C1` (centres undefined), the RP-LC retention time came to 670 s.

Consider `COc1ccccc1-c1cc2c(=O)n(Cc3nc(-c4cccc(F)c4)no3)ccn2n1`, for which the RP-LC retention time is 1040 s.

On to `COc1ccc(OCc2nc(C3CN(C(=O)C4(c5ccccc5)CC4)C3)no2)cc1`, for which the RP-LC retention time worked out at 904 s.

Compound `CC1CCCCN1CCCNC(=O)CN1C(=O)CCn2nc(-c3cn(C)c4ccccc34)cc21` (centres undefined) came in with an RP-LC retention time of 564 s.

`CCC[C@@H]1C[C@@H](C(=O)N[C@@H]([C@H]2O[C@H](SC)[C@H](O)[C@@H](O)[C@@H]2O)[C@@H](C)O)N(C)C1` yielded an RP-LC retention time of 595 s.

In turn, `CCN(CC)CCNC(=O)C1CCN(c2nnc3ccc(Cl)cn23)CC1` registered an RP-LC retention time of 565 s.

Take `CCCn1ccc2sc(C)c(C(=O)NCCN3CCCCC3CC)c2c1=O` (centres undefined): the RP-LC retention time was determined as 673 s.

Take `CCOC(=O)CNC(=O)N1CCN(Cc2nc3cc(-c4ccccc4)ccc3o2)CC1`: the RP-LC retention time came out at 601 s.

Consider `Cc1ccc(S(=O)(=O)N(C)c2ccc(C(=O)N3C(C)CCCC3C)cc2)cc1` (centres undefined), for which the RP-LC retention time is 961 s.

The compound `O=C(CN1CCCCC1c1nc(-c2cccc(F)c2)no1)Nc1ccc(F)cc1` (centres undefined) returned an RP-LC retention time of 1130 s.

For the compound `CCS(=O)(=O)c1ccc2c(c1)N(Cc1nc(-c3ccc(Br)cc3)no1)C(=O)CO2`, the RP-LC retention time amounted to 988 s.

In turn, `O=C(C1CCN(S(=O)(=O)c2ccc(-c3noc(C4CC4)n3)cc2)CC1)N1CCCC1` yielded an RP-LC retention time of 859 s.

`CCn1c(=O)oc2cc(-c3noc(-c4ccnn4C)n3)ccc21` displayed an RP-LC retention time of 903 s.

On to `CCCCS(=O)(=O)c1cc2c(cc1NC(=O)c1c(F)cccc1F)n(C)c(=O)n2C`, for which the RP-LC retention time came to 800 s.

Regarding `O=C(C1CC1)N1CCc2sc(S(=O)(=O)NCc3ccccc3Cl)cc2C1`, the RP-LC retention time was 855 s.

In turn, `CC(C)OCCCNC(=O)c1c2c(cn(-c3ccc(F)cc3)c1=O)C(=O)CC(C)(C)C2` showed an RP-LC retention time of 885 s.

For the compound `CSc1cccc(N2C=C(C(=O)N3CCCC3)S(=O)(=O)c3ccccc32)c1`, the RP-LC retention time amounted to 819 s.

Compound `CCc1nc2cc(N3CCC(C(=O)N4CCC5(CC4)OCCO5)CC3)cnc2nc1CC` gave an RP-LC retention time of 723 s.

Compound `COC(=O)c1ccc(C(=O)NCC(c2ccccc2Cl)N(C)C)cc1` (centres undefined) displayed an RP-LC retention time of 560 s.

For the compound `COC(=O)c1cc(OCC(=O)NCc2ccc3c(c2)OCO3)c2cc(OC)ccc2n1`, the RP-LC retention time is 749 s.

As for `CCOC(=O)c1[nH]c(C)c(C(=O)C(C)N(CCC(C)C)C(=O)c2ccc(C)cc2)c1C` (centres undefined), the RP-LC retention time is 1110 s.

For the compound `O=C(CN1C(=O)N/C(=C\c2ccc(Cl)cc2)C1=O)Nc1ccc(Cl)cc1`, the RP-LC retention time was determined as 899 s.

`CCc1nc2c(NC(=O)c3ccc(Cl)s3)cccn2n1` had an RP-LC retention time of 941 s.
